Data on one molecule can be found in patent publication US7479385B2, “Sugar kinases with expanded substrate specificity and their use” (Wisconsin Alumni Research Foundation, priority 2003, dated 2009).

As usually defined, the Km is the concentration of substrate that gives half-maximal velocity.

Like-named read-outs stand apart in the source and are kept apart here.

Assay [1] addresses T1, E. coli GalK M173L mutant (Escherichia coli, UniProt P0A6T3, M173L).
T1 construct: His-tag (concluded from Ni-NTA purification and vector pET15b); made in house
As to the kind of experiment: Substrate screen / percent conversion of 45 sugars, M173L. The settings on record: in 3 hr, 37° C.; 8 mM sugar, 14 mM ATP, 3.5 mM MgCl2, 15.0 μM enzyme. In kind it is biochemical. The text has this:
(§1) Characterization of GalK Mutants. […] The mutant enzymes were purified by using metal affinity chromatography on Ni-NTA Spin Columns (QIAGEN, Valencia, Calif.) and fractions containing homogenous protein were collected, concentrated and quantified using the Bradford protein assay. The DNS assay was used to assess the substrate specificity of the purified GalK mutants as previously described. […] For each sugar, the DNS assay was used to monitor the reaction progress and control assays in the absence of enzyme or sugar were performed in parallel. Standard curves for each sugar were prepared as described. To assess general percent conversion, each reaction contained 15.0 (M enzyme, 8 mM sugar, 14 mM ATP and 3.5 mM MgCl2. The reactions were incubated at 37° C. for 3 hrs after which the reactions were quenched with MeOH, centrifuged (10 min, 12,000 rpm) and then the supernatant (diluted 20-fold) submitted for LC-MS and MS/MS analysis. For monosaccharide kinetic data determination, the sugar concentration was varied over a range of 1-8 mM, under saturating ATP (14 mM). Reaction progress was assessed via the DNS assay, wherein a change in absorbance at 575 nm as a function of time was obtained and the initial velocity determined by the slope of the linear phase in the progress curve. The kinetic data was analyzed using Enzyme Kinetics Module software (SSPS, Inc., Chicago, Ill.) as previously described.
Characterization of Engineered E. coli GalK Mutants.

The next assay has as its target L. lactis GalK Y385H (Lactococcus lactis subsp. lactis, UniProt Q9R7D7, Y385H). The settings on record: cited from earlier work.
For a further assay, the target named is T2, L. lactis wild-type GalK (Lactococcus lactis subsp. lactis, UniProt Q9R7D7).
T2 sequence (Q9R7D7 1-399): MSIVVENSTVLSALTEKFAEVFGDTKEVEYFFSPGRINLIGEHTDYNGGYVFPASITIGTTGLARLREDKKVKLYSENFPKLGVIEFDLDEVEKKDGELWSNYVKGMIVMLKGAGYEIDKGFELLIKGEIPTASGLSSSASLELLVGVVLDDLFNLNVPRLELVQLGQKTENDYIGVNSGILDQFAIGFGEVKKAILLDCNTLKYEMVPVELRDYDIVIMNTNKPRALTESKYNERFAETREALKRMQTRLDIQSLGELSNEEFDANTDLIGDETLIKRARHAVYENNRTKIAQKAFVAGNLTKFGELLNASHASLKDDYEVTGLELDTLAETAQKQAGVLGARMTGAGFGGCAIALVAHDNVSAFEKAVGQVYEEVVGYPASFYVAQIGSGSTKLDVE
The settings on record: in vitro, cited from earlier work.

The target in assay [2] is T3, E. coli GalK mutant M173L (Escherichia coli, UniProt P0A6T3, M173L).
T3 construct: His-tag (concluded from Ni-NTA purification and vector pET15b); made in house
T3 sequence (P0A6T3 whole entry M173L): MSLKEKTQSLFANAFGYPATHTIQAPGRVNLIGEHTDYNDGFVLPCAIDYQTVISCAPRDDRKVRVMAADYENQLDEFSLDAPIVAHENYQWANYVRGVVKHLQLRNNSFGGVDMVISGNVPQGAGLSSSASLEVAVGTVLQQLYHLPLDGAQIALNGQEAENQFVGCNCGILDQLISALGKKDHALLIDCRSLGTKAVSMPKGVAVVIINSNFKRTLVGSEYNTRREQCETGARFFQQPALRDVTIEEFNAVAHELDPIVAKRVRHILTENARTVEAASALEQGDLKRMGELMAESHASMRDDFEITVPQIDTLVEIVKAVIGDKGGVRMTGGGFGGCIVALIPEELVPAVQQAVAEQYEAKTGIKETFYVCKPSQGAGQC
Nature of the assay: Steady-state kinetic profiling (DNS assay), Table 2, M173L. In kind it is biochemical. The settings on record: sugar 1-8 mM, saturating ATP (14 mM).
From the text: as §1, with “The kinetic data was analyzed using Enzyme Kinetics Module software (SSPS, Inc., Chicago, Ill.) as previously described.” left out

In assay [3] the target is T4, E. coli GalK double mutant M173L-Y371H (Escherichia coli, UniProt P0A6T3, M173L/Y371H).
T4 construct: His-tag (concluded from Ni-NTA purification and vector pET15b); made in house
T4 sequence (P0A6T3 whole entry M173L/Y371H): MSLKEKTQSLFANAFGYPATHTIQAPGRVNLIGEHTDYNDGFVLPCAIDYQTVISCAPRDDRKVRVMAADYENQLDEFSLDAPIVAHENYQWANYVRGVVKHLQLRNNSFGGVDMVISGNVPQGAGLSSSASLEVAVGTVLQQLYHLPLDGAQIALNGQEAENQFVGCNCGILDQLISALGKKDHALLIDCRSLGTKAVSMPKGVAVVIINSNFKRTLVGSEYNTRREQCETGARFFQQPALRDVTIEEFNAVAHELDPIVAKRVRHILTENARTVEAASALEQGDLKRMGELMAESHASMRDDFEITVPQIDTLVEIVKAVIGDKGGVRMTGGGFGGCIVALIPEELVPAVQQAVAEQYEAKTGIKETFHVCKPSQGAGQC
Nature of the assay: Steady-state kinetic profiling (DNS assay), Table 2, M173L-Y371H. In kind it is biochemical. The settings on record: sugar 1-8 mM, saturating ATP (14 mM).
From the text: as §1, with “The kinetic data was analyzed using Enzyme Kinetics Module software (SSPS, Inc., Chicago, Ill.) as previously described.” left out

Chain of L. lactis GalK Y385H (Q9R7D7 whole entry Y385H): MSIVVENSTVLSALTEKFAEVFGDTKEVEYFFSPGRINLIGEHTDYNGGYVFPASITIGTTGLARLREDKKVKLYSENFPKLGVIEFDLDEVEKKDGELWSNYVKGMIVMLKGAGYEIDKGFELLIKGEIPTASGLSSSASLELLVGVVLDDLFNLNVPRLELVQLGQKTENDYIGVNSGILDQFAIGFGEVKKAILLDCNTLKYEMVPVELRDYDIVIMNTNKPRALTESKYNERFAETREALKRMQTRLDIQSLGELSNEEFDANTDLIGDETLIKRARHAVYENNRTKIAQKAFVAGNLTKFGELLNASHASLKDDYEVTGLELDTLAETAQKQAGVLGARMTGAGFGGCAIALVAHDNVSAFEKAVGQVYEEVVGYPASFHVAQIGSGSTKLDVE
T1 sequence (P0A6T3 whole entry M173L): as the sequence (P0A6T3 whole entry M173L) above

Consider `O=C[C@H](O)[C@@H](O)[C@H](O)[C@H](O)CO` [D-Glc (27), D-glucose], for which, in assay [1], the “conversion by M173L” value was 20%. The “activity with L. lactis GalK Y385H (in words)” value on L. lactis GalK Y385H was “weak activity”. In addition, the “conversion / activity with L. lactis wild-type GalK (in words)” value is recorded as “weak activity” on L. lactis wild-type GalK and “in vitro conversion” at L. lactis wild-type GalK (listed as D-glucose (27)). Besides, the Km in assay [2] (read-out: Km, M173L (D-Glc column)) was found to be 2.6 mM; in assay [3] (read-out: Km, M173L-Y371H (D-Glc column)) it was 4 mM. Besides, in assay [2], the “Vmax, M173L” value is reported as 0.02 (±0.01) mM min^−1. Also, the “Vmax, M173L-Y371H” value in assay [3] is recorded as 0.02 (±0.01) mM min^−1.
